# Measurements reported in patent US11478558B2, “Prostate-specific membrane antigen targeted high-affinity agents for endoradiotherapy of prostate cancer” (The Johns Hopkins University, priority 2017, dated 2022).
# Like-named read-outs stand apart in the source and are kept apart here.
# Key:
# PSMA(+) PC3 PIP cells = assay: Cell uptake, cell surface binding and internalization in PSMA(+) PC3 PIP cells; format: cell-based, human
# PSMA = PSMA (Homo sapiens (Human), UniProt Q04609); assay: PSMA binding affinity; settings: Table 6, given as range
# Chain of PSMA (Q04609 whole entry): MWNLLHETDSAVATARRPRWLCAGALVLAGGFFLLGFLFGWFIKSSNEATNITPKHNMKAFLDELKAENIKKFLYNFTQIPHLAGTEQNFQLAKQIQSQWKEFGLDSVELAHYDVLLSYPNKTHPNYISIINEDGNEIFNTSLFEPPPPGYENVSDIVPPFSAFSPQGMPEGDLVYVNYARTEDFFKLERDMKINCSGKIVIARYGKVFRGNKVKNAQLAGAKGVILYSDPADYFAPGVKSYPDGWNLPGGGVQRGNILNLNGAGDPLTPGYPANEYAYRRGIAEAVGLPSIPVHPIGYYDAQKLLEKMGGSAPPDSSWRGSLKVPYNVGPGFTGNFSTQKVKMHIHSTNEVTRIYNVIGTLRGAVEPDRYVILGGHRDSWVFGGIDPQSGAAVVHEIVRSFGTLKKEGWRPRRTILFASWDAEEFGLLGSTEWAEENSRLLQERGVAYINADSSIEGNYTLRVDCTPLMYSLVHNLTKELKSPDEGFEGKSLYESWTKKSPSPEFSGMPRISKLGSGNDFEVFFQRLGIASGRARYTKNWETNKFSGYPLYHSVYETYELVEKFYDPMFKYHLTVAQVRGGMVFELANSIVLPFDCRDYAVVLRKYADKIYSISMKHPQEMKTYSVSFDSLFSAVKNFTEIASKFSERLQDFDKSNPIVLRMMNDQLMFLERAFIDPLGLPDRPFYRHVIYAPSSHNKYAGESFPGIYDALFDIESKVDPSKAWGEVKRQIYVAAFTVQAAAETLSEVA
SMILES,Specific Cell Surface Binding (PSMA(+) PC3 PIP cells),specific internalization (PSMA(+) PC3 PIP cells),other results
"O=C(O)CC[C@H](NC(=O)N[C@@H](CCCCN(Cc1ccc(Br)cc1)C(=O)CCCCNC(=O)CN1CCN(CC(=O)O)CCN(CC(=O)O)CCN(CC(=O)O)CC1)C(=O)O)C(=O)O [Ligand L1, (14S,18S)-9-(4-Bromobenzyl)-2,8,16-trioxo-1-(4,7,10-tris(carboxymethyl)-1,4,7,10-tetraazacyclododecan-1-yl)-3,9,15,17-tetraazaicosane-14,18,20-tricarboxylic acid]",36.49 ± 0.50 % IA/10^6 cells,23.68 ± 0.16 % IA/10^6 cells,–
"O=C(O)CC[C@H](NC(=O)N[C@@H](CCCCN(Cc1ccc(I)cc1)C(=O)CCCCCNC(=O)c1ccc(CNC(=O)CN2CCN(CC(=O)O)CCN(CC(=O)O)CCN(CC(=O)O)CC2)cc1)C(=O)O)C(=O)O [Ligand L4, (14S,18S)-9-(4-Iodobenzyl)-1,8,16-trioxo-1-(4-((2-(4,7,10-tris(carboxymethyl)-1,4,7,10-tetraazacyclododecan-1-yl)acetamido)methyl)phenyl)-2,9,15,17-tetraazaicosane-14,18,20-tricarboxylic acid]",–,–,Ki (PSMA): 140 to 390 pM
"O=C(O)CC[C@H](NC(=O)N[C@@H](CCCCNC(=O)CCCCCCC(=O)NCCCC[C@H](NC(=O)[C@@H](CCCCNC(=O)CCCc1ccc(I)cc1)NC(=O)CN1CCN(CC(=O)O)CCN(CC(=O)O)CCN(CC(=O)O)CC1)C(=O)O)C(=O)O)C(=O)O [Ligand L14, (3S,7S,26S,29R)-38-(4-iodophenyl)-5,13,20,28,35-pentaoxo-29-(2-(4,7,10-tris(carboxymethyl)-1,4,7,10-tetraazacyclododecan-1-yl)acetamido)-4,6,12,21,27,34-hexaazaoctatriacontane-1,3,7,26-tetracarboxylic acid]",53.0 ± 1.3 % IA/10^6 cells,–,–
"O=C(O)CC[C@H](NC(=O)N[C@@H](CCCCNC(=O)CCCCCCC(=O)NCCCC[C@@H](NC(=O)[C@@H](Cc1ccccc1)NC(=O)[C@@H](Cc1ccc(O)c(I)c1)NC(=O)CCC(C(=O)O)N1CCN(CC(=O)O)CCN(CC(=O)O)CCN(CC(=O)O)CC1)C(=O)O)C(=O)O)C(=O)O (some centres unmarked) [PSMA I&T, reference compound]",–,–,Specific Cell Surface Binding (PSMA(+) PC3 PIP cells; Table 6): 64.5 ± 2.3 % IA/10^6 cells; specific internalization (PSMA(+) PC3 PIP cells; Table 6): 21.1 ± 0.7 % IA/10^6 cells
"O=C(O)CC[C@H](NC(=O)N[C@@H](CCCCNC(=O)[C@H](Cc1ccc2ccccc2c1)NC(=O)[C@H]1CC[C@H](CNC(=O)CN2CCN(CC(=O)O)CCN(CC(=O)O)CCN(CC(=O)O)CC2)CC1)C(=O)O)C(=O)O [PSMA-617, reference compound]",44.6 ± 1.0 % IA/10^6 cells,21.1 ± 0.9 % IA/10^6 cells,–
